Where a name gives a salt, the structure may show the parent alone.
Biological target: T1, human TGR5 (Homo sapiens, UniProt Q8TDU6)
T1 construct: expressed in transfected cells; host or cells: HEK293
T1 sequence (Q8TDU6 1-330): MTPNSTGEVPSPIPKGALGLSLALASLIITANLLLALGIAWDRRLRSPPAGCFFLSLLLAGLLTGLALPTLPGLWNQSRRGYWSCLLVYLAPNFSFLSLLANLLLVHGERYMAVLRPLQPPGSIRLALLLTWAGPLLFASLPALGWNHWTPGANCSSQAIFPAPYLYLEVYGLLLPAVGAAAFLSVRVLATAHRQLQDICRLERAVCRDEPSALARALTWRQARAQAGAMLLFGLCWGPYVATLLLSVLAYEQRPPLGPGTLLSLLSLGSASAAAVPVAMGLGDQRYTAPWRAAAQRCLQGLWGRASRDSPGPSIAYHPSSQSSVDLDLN
Experiment: Cell-based TGR5 assay (cAMP generation, HTRF)
Conditions: HEK293 cells stably transfected with human TGR5; cAMP by HTRF; 30 minutes at 37° C.; read-out: pEC50 Human TGR5 (converted)
Description: A primary cell-based assay utilized HEK293 cells stably transfected with a gene encoding human TGR5. Cells were treated with candidate TGR5 activators and assessed for increased intercellular levels of cAMP.
TGR5-mediated cAMP generation was measured using a homogeneous time resolved fluorescence (HTRF) detection method (Cisbio). Test compounds were dissolved in DMSO to a final concentration of 10 mM. Serial 3-fold dilutions of the stock solution were made in DMSO, and these solutions were diluted 100-fold into Hanks Balanced Salt Solution supplemented with 10 mM HEPES pH 7.4, 0.003% Tween 20 and 0.5 mM isobutyl methylxanthine. Five microliters of diluted test compounds were added to wells of a black 384 well plate.
Cells grown overnight at 37° C./5% CO2 were harvested and resuspended in Hanks Balanced Salt Solution containing 10 mM HEPES to a concentration of […]. Five microliters (2500 cells) were dispensed into each well of the 384 well plate containing compound dilutions and incubated at 37° C. for 30 minutes. Each compound was tested in duplicate at 12 concentrations ranging from 0.05 nM to 10 μM.
Following incubation with test compounds, cAMP was detected through the successive addition of 5 μL each of cAMP labeled with the modified allophyocyanin dye d2 (cAMP-d2) and cryptate-labeled anti-cAMP in lysis buffer, and reading HTRF per the manufacturer's instructions.
A standard curve was used to convert the raw HTRF data into [cAMP]. The concentration of cAMP was plotted against log [test compound] and the resulting curves were fit to a 3-parameter logistical equation using GraphPad Prism to determine pEC50 (the negative log of the EC50) and the magnitude of the response.

| EC50 [nM] | SMILES |
| --- | --- |
| < 100 | CCCN(C[C@H](O)[C@@H](O)[C@H](O)[C@H](O)CO)C(=O)CCCCc1cc(Cl)c(COC2(c3cnccc3-c3ccccc3OC3CC3)CC2)cc1Cl [Compound I-129, 5-[2,5-dichloro-4-({1-[4-(2-cyclopropoxyphenyl)pyridin-3-yl]cyclopropoxy}methyl)phenyl]-N-[(2S,3R,4R,5R)-2,3,4,5,6-pentahydroxyhexyl]-N-propylpentanamide] |
| 126 to 1000 | O=C([C@@H](O)[C@@H](O)[C@H](O)[C@@H](O)CO)N(CCCSc1ccc(Cl)c(COC2(c3cnccc3-c3ccccc3OC3CC3)CC2)c1)C1CCS(=O)(=O)CC1 [Compound I-556, (2S,3S,4R,5S)-N-(3-{[4-chloro-3-({-[4-(2-cyclopropoxyphenyl)pyridin-3-yl]cyclopropoxy}methyl)phenyl]sulfanyl}propyl)-N-(1,1-dioxo-1λ^6-thian-4-yl)-2,3,4,5,6-pentahydroxyhexanamide] |
| < 100 | Cc1ccc(C(C)CCCC(=O)NC[C@H](O)[C@@H](O)[C@H](O)[C@H](O)CO)cc1CNC1(c2cnccc2-c2ccccc2OC2CC2)CC1 (stereo partly drawn) [Compound I-257, 5-[3-[([1-[4-(2-cyclopropoxyphenyl)pyridin-3-yl]cyclopropyl]amino)methyl]-4-methylphenyl]-N-[(2S,3R,4R,5R)-2,3,4,5,6-pentahydroxyhexyl]hexanamide dihydrochloride] |
| < 100 | Cc1ccc(C(C)CCCN(CCS(C)(=O)=O)C(=O)[C@@H](O)[C@@H](O)[C@H](O)[C@@H](O)CO)cc1CNC1(c2cnccc2-c2ccccc2OC2CC2)CC1 (stereo partly drawn) [Compound I-305, (2S,3S,4R,5S)-N-(4-{3-[({1-[4-(2-cyclopropoxyphenyl)pyridin-3-yl]cyclopropyl}amino)methyl]-4-methylphenyl}pentyl)-2,3,4,5,6-pentahydroxy-N-(2-methanesulfonylethyl) hexanamide] |
| < 100 | CCOC(=O)NCCN(CCCCSc1ccc(Cl)c(CNC2(c3cnccc3-c3ccccc3OC3CC3)CC2)c1)C(=O)[C@@H](O)[C@@H](O)[C@H](O)[C@@H](O)CO [Compound I-572, ethyl N-{2-[(2S,3S,4R,5S)-N-[4-({4-chloro-3-[({1-[4-(2-cyclopropoxyphenyl)pyridin-3-yl]cyclopropyl}amino)methyl]phenyl}sulfanyl)butyl]-2,3,4,5,6-pentahydroxyhexanamido]ethyl}carbamate] |
| < 100 | Cc1cc(COC2(c3cnccc3-c3ccccc3OC3CC3)CC2)c(Cl)cc1CCCCN(C)C(=O)NC[C@H](O)[C@@H](O)[C@H](O)[C@H](O)CO [Compound I-115, 1-{4-[5-chloro-4-({1-[4-(2-cyclopropoxyphenyl)pyridin-3-yl]cyclopropoxy}methyl)-2-methylphenyl]butyl}-1-methyl-3-[(2S,3R,4R,5R)-2,3,4,5,6-pentahydroxyhexyl]urea] |
| 126 to 1000 | CS(=O)(=O)NCCCN(CCCCSc1ccc(Cl)c(CNC2(c3cnccc3-c3ccccc3OC3CC3)CC2)c1)C(=O)[C@@H](O)[C@@H](O)[C@H](O)[C@@H](O)CO [Compound I-591, (2S,3S,4R,5S)-N-[4-({4-chloro-3-[({1-[4-(2-cyclopropoxyphenyl)pyridin-3-yl]cyclopropyl}amino)methyl]phenyl}sulfanyl)butyl]-2,3,4,5,6-pentahydroxy-N-(3-methanesulfonamidopropyl) hexanamide] |
| 126 to 1000 | O=C(NCCCN1CCN(S(=O)(=O)c2ccc(Cl)c(COC3(c4cnccc4-c4ccccc4OC4CC4)CC3)c2)CC1)NC[C@H](O)[C@@H](O)[C@H](O)[C@H](O)CO [Compound I-423, 1-(3-{4-[4-chloro-3-({1-[4-(2-cyclopropoxyphenyl)pyridin-3-yl]cyclopropoxy}methyl)benzenesulfonyl]piperazin-1-yl}propyl)-3-[(2S,3R,4R,5R)-2,3,4,5,6-pentahydroxyhexyl]urea] |
